Values quoted from earlier work, collected in US20070289889A1, “Biomarkers For The Prediction Of Drug-In Duced Diarrhea” (NOVARTIS AG, priority 2003, published 2007).

Settings: anticancer drugs targeted to inhibit the cell cycle, literature; cited from earlier work

**Q.** For `CCc1c2c(nc3ccc(OC(=O)N4CCC(N5CCCCC5)CC4)cc13)-c1cc3c(c(=O)n1C2)COC(=O)[C@]3(O)CC` [CPT-11], which drug-induced diarrhoea is on record?
**A.** Its drug-induced diarrhoea is “Diarrhoea has been reported”.
